For series [1], the system named is HSV-1. The series can be described thus: Cytopathic effect (CPE) assay, HSV-1. As to conditions: for effect on percent monolayer cell death, second set of experiments: 0-200 PFU, series of concentrations; for protective effect: no agar overlay, highest concentrations tested.
The target of series [2] is T1, creatine kinase (Oryctolagus cuniculus, UniProt P00563). Description: Phosphorylation by creatine kinase, coupled assay with pyruvate kinase and LDH. Type of series: biochemical. Conditions: 40 mM. As to the method:
Compound 5/6 (AM 361), where R=CH3, was prepared as described above and assayed for phosphorylation by creatine kinase in a coupled assay with pyruvate kinase and lactate dehydrogenase (LDH) as described (Bergmeyer, H. U., ed. (1974), In: Methods of Enzymatic Analysis, Second English Edition, Volume 4, (Verlag Chemie Weinheim and Academic Press, Inc.: New York, London) pp. 1772-1779). Each compound listed in Table 11 below was tested at a concentration of 40 mM. Compound 5/6 (AM 361) was slowly phosphorylated.

In series [3] the target is T1, creatine kinase. As to conditions: cited from earlier work.
Series [4] can be described thus: Drug cytotoxicity in CPE assay (monolayer death in absence of virus). Conditions: monkey, vero cells.
Series [5] relates to Vesicular stomatitis virus (VSV), Indiana strain. Type of series: cell-based. Conditions: tested in parallel.
Series [6] relates to Pseudorabies virus, Aujeszky strain. Type of series: cell-based. Conditions: similar assay.
Series [7] has as its system Guinea Pig Cytomegalovirus, Strain 22122. The series can be described thus: CPE reduction assay, guinea pig cytomegalovirus in GPE cells. Type of series: cell-based. Conditions: 12.5 mg/ml.
Series [8] has as its system Varicella-Zoster Virus, strain Oka. The series can be described thus: microbe, parasite or virus in culture. Conditions: Human alphaherpesvirus 3, MRC5, read-out: plaque reduction. Type of series: cell-based.

T1 sequence (P00563 whole entry): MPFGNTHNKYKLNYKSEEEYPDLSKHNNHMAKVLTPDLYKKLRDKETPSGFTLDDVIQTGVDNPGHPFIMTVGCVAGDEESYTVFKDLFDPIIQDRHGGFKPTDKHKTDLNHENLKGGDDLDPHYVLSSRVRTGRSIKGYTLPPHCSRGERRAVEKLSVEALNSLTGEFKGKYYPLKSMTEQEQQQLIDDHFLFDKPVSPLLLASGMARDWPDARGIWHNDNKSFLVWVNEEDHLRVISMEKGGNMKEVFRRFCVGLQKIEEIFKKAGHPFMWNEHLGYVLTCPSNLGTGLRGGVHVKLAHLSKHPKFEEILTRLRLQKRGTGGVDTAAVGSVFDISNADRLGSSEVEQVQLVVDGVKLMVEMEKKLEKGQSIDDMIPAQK

Consider “1-carboxymethyl-2-iminomethylimidazolidine [AM 361]”, for which the “effect on cytopathic effect” value in series [1] (22.1 mM, Vero cells) is “reduced the cytopathic effect as compared with the no drug control in wells inoculated with 25 or 50 PFU/well”. The same compound had a virus-induced monolayer death in series [1] (44.2 mM, Vero cells, each inoculum 12-200 PFU/well (no drug control 30-90%)) of 2%. In addition, the “effect on cytopathic effect” value in series [1] (18.2-72.7 mM, serum-starved Vero cells, FIG. 17A) is given as “inhibited the cytopathic effect”. Also, in series [2], the “% Rate of Creatine” value was 2.4% and the “Δ in Absorbance/min” value is 0.041.

For `Nc1nccn1CC(=O)O` [1-carboxymethyl-2-aminoimidazole, reference compound], the “dose response against cytopathogenicity” value in series [1] (Vero cells, 0.31-5.0 mg/ml, FIG. 16) is “shows no such effect”. Besides, in series [3], the “binding to creatine kinase” value is “an affinity equal to that of cyclocreatine” and the “initial rate of phosphorylation by creatine kinase, slower” value was 5 orders of magnitude.

Turning to `N=C1NCCCN1CC(=O)O` [1-carboxymethyl-2-iminohexahydropyrimidine, reference compound], the “effect on percent monolayer cell death, second set of experiments” value (shortened to “effect on percent monolayer cell death”) in series [1] (Vero cells) was “no dose-response or consistent protective effect”. In addition, the protective effect entry in series [1] (Vero cells, 125 PFUs) is “weak protective effect in some wells”.

In turn, `N=C1NCC(=O)N1CC(=O)O` [Compound 7] returned a cytotoxicity at 41700 µM in series [4] of 4%. Moreover, the antiviral activity entry in series [1] (41.7 mM, Vero cells, 12-200 PFU/well) is “consistent antiviral activity”.

In series [4], `CN=C1NCCN1CC(=O)O` [Compound 10a] gave a cytotoxicity at 38200 µM of 5%. Moreover, the “effect on monolayer death” value in series [1] (19.1 mM, 12, 50, 100 or 200 PFU/well, not 25 PFU/well) is reported as “a reduction in monolayer death”.

In series [4], `C=CCN=C1NCCN1CC(=O)O` [Compound 10b] gave a cytotoxicity at 23000 µM of 7% and a cytotoxicity at 45900 µM of 30%. The antiviral effect result in series [1] (2.58-45.90 mM, Vero cells, 12-200 PFU/well) is listed as “No consistent antiviral effect”.

`CCN(CC(=O)O)C(=N)N` [EGA, N-ethyl-N-amidinoglycine, reference compound]: in series [1] (Vero cells), the “effect on percent monolayer cell death” value is recorded as “no dose-response or consistent protective effect”. Besides, the protective effect result in series [1] (Vero cells, 125 PFUs) is “weak protective effect in some wells”.

On to `CN(CC(=O)O)C(=N)NP(=O)(O)O` [P-creatine, N-phosphorocreatine, reference compound], for which the Km in series [3] (reverse reaction, without cyclocreatine, read-out: Km of P-creatine) was 1800 µM.

For `NC(=O)c1ncn([C@@H]2O[C@H](CO)[C@@H](O)[C@H]2O)n1` [Ribavirin, reference compound], the “effect on the virus” value in series [5] is given as “only a moderate effect”.

For `Nc1ncnc2c1ncn2[C@@H]1O[C@H](CO)[C@@H](O)[C@@H]1O` [adenine arabinoside], in series [6], the “effect against Pseudorabies virus” value was “ineffective”.

As to `CC(CC(=O)O)C(=N)N` (stereo not shown) [carbocreatine, 3-amidinobutyric acid, reference compound], the “effect on percent monolayer cell death” value in series [1] (Vero cells) is recorded as “no dose-response or consistent protective effect”. The protective effect result in series [1] (Vero cells, 125 PFUs) was “weak protective effect in some wells”.

Take `CN(CC(=O)O)C(=N)N` [creatine]: the activity result in series [1] (70 mM, Vero cells, 125 PFUs) was “some activity”. For the same compound, in series [2], the “% Rate of Creatine” value amounted to 100% and the “Δ in Absorbance/min” value amounted to 1.18.

As for `N=C1NCCN1CCC(=O)O` [homocyclocreatine, 1-carboxyethyl-2-iminoimidazolidine, reference compound], in series [7], the “Ave. CPE” value was determined as 3.7. Besides, in series [8], the inhibition at 1000 µg/mL was 36%, the inhibition at 2000 µg/mL was found to be 39% and the inhibition at 4000 µg/mL came out at 50%.

`N=C(N)NCCC(=O)O` [β-guanidinopropionate, β-guanidinopropionic acid, reference compound]: in series [1] (Vero cells), the “effect on percent monolayer cell death” value is “no dose-response or consistent protective effect”. The protective effect result in series [1] (Vero cells, 125 PFUs) was “weak protective effect in some wells”.

isoepoxycreatine [reference compound]: the “inactivation of creatine kinase” value in series [3] (affinity reagent) is “completely and irreversibly inactivate creatine kinase”.

(Values after patent US5321030A, “Creatine analogs having antiviral activity” (priority 1991, dated 1994).)
